Assay results taken from the supplement of paper PMC11061612.

How the values were obtained:
Experiment in all cases: Bliss excess, mean over the matrix (fraction); higher = more synergy
[1] = tested on: ASH-3 (Thyroid Gland Carcinoma)
Method in brief: (§1)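 Bliss excess equals the observed combination effect minus the expected value EA + EB − EA·EB, where EA and EB are the effects of each agent alone. Combination Emax is the second-highest inhibition within the matrix. Inhibition was scaled from CellTiter-Glo 2.0 luminescence, with 0 set by vehicle wells and 1 by blank wells, after 72 hours of two-drug dosing of cells plated in 1536-well plates.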

[2] = tested on: BV-173 (Chronic Myelogenous Leukemia)
Method in brief: as §1

[3] = tested on: EMC-BAC-2 (Non-Small Cell Lung Carcinoma)
Method in brief: as §1

EW-13 (Ewing's Sarcoma) = tested on: EW-13 (Ewing's Sarcoma)
Method in brief: as §1

GI-1 (Glioblastoma) = tested on: GI-1 (Glioblastoma)
Method in brief: as §1

[4] = tested on: H-EMC-SS (Chondrosarcoma)
Method in brief: as §1

[5] = tested on: HC-1 (Other Blood Carcinomas)
Method in brief: as §1

[6] = tested on: HSC-2 (Oral Cavity Carcinoma)
Method in brief: as §1

[7] = tested on: JHH-7 (Hepatocellular Carcinoma)
Method in brief: as §1

[8] = tested on: KINGS-1 (Low Grade Glioma)
Method in brief: as §1

[9] = tested on: KLE (Endometrial Carcinoma)
Method in brief: as §1

[10] = tested on: KYSE-150 (Esophageal Squamous Cell Carcinoma)
Method in brief: as §1

[11] = tested on: KYSE-50 (Esophageal Squamous Cell Carcinoma)
Method in brief: as §1

[12] = tested on: LC4-1 (B-Lymphoblastic Leukemia)
Method in brief: as §1

[13] = tested on: MFE-319 (Endometrial Carcinoma)
Method in brief: as §1

NB7 (Neuroblastoma) = tested on: NB7 (Neuroblastoma)
Method in brief: as §1

[14] = tested on: NCI-H2405 (Lung Adenocarcinoma)
Method in brief: as §1

[15] = tested on: NCI-H513 (Other Solid Carcinomas)
Method in brief: as §1

NH-12 (Neuroblastoma) = tested on: NH-12 (Neuroblastoma)
Method in brief: as §1

[16] = tested on: PF-382 (T-Lymphoblastic Leukemia)
Method in brief: as §1

SMILES | Bliss excess [1] | Bliss excess [2] | Bliss excess [3] | Bliss excess (EW-13 (Ewing's Sarcoma)) | Bliss excess (GI-1 (Glioblastoma)) | Bliss excess [4] | Bliss excess [5] | Bliss excess [6] | Bliss excess [7] | Bliss excess [8] | Bliss excess [9] | Bliss excess [10] | Bliss excess [11] | Bliss excess [12] | Bliss excess [13] | Bliss excess (NB7 (Neuroblastoma)) | Bliss excess [14] | Bliss excess [15] | Bliss excess (NH-12 (Neuroblastoma)) | Bliss excess [16]
CC1(C)CCC(CN2CCN(c3ccc(C(=O)NS(=O)(=O)c4ccc(NCC5CCOCC5)c([N+](=O)[O-])c4)c(Oc4cnc5[nH]ccc5c4)c3)CC2)=C(c2ccc(Cl)cc2)C1 [Venetoclax] + CCN(CCO)CCCOc1ccc2c(Nc3cc(CC(=O)Nc4cccc(F)c4)[nH]n3)ncnc2c1 [AZD2811] (first compound max 1 µM, 7x7, partner max 1 µM) | -0.0166 | -0.0739 | -0.0038 | -0.0499 | 0.0405 | -0.0468 | 0.177 | -0.0264 | 0.0033 | -0.0652 | -0.0629 | 0.0115 | 0.0025 | 0.0039 | 0.0015 | 0.0098 | -0.0345 | -0.04 | 0.0685 | 0.0279
CC1(C)CCC(CN2CCN(c3ccc(C(=O)NS(=O)(=O)c4ccc(NCC5CCOCC5)c([N+](=O)[O-])c4)c(Oc4cnc5[nH]ccc5c4)c3)CC2)=C(c2ccc(Cl)cc2)C1 [Venetoclax] + CN(C)CCCOc1ccc(-c2ccc3ncc4c(c3c2)n(C2CCOCC2)c(=O)n4C)cn1 [AZD0156] (first compound max 1 µM, 7x7, partner max 1 µM) | -0.0193 | -0.0598 | -0.0593 | -0.0351 | 0.0106 | -0.0387 | -0.0244 | 0.0307 | -0.032 | -0.0746 | -0.145 | -0.0356 | -0.0399 | 0.056 | 0.0513 | 0.0104 | -0.0324 | -0.0142 | -0.0978 | 0.0446
CC1(C)CCC(CN2CCN(c3ccc(C(=O)NS(=O)(=O)c4ccc(NCC5CCOCC5)c([N+](=O)[O-])c4)c(Oc4cnc5[nH]ccc5c4)c3)CC2)=C(c2ccc(Cl)cc2)C1 [Venetoclax] + COc1cc(Nc2ncc3c(n2)-c2ccc(Cl)cc2C(c2c(F)cccc2OC)=NC3)ccc1C(=O)O [Alisertib] (first compound max 1 µM, 7x7, partner max 10 µM) | 0.0145 | -0.018 | -0.0033 | 0.0517 | 0.0787 | 0.0092 | 0.18 | 0.0857 | -0.0134 | -0.0049 | -0.0709 | -0.0364 | -0.0101 | 0.0661 | -0.0256 | -0.0193 | -0.0251 | -0.0137 | 0.0844 | 0.0444
CC1(C)CCC(CN2CCN(c3ccc(C(=O)NS(=O)(=O)c4ccc(NCC5CCOCC5)c([N+](=O)[O-])c4)c(Oc4cnc5[nH]ccc5c4)c3)CC2)=C(c2ccc(Cl)cc2)C1 [Venetoclax] + C[C@@H]1COCCN1C2=NC(=NC(=C2)C3(CC3)[S@](=N)(=O)C)C4=C5C=CNC5=NC=C4 [AZD6738] (first compound max 1 µM, 7x7, partner max 10 µM) | -0.131 | -0.0634 | -0.0196 | 0.0008 | -0.0025 | -0.0416 | 0.0289 | 0.0275 | -0.0318 | -0.0432 | -0.0538 | -0.0979 | -0.0492 | 0.0467 | -0.0494 | -0.0342 | -0.06 | -0.0111 | -0.0647 | 0.0366
CC1(C)CCC(CN2CCN(c3ccc(C(=O)NS(=O)(=O)c4ccc(NCC5CCOCC5)c([N+](=O)[O-])c4)c(Oc4cnc5[nH]ccc5c4)c3)CC2)=C(c2ccc(Cl)cc2)C1 [Venetoclax] + C[C@@H](Nc1cc(F)cc(F)c1)c1cc(C(=O)N(C)C)cc2c(=O)cc(N3CCOCC3)oc12 [AZD8186] (first compound max 1 µM, 7x7, partner max 3 µM) | -0.0223 | -0.0477 | -0.0393 | 0.0349 | -0.0091 | -0.0159 | 0.0693 | -0.0482 | -0.0516 | 0.0081 | 0.0002 | -0.0281 | -0.0295 | 0.0967 | -0.0419 | -0.0235 | -0.0396 | -0.0586 | 0.124 | 0.0111
CC1(C)CCC(CN2CCN(c3ccc(C(=O)NS(=O)(=O)c4ccc(NCC5CCOCC5)c([N+](=O)[O-])c4)c(Oc4cnc5[nH]ccc5c4)c3)CC2)=C(c2ccc(Cl)cc2)C1 [Venetoclax] + Cc1cc2ncnn2cc1Nc1ncc2c(n1)n(C1CCOCC1)c(=O)n2C [AZD7648] (first compound max 1 µM, 7x7, partner max 10 µM) | -0.0732 | -0.0492 | -0.0596 | -0.0417 | 0.0369 | -0.0179 | -0.02 | -0.0177 | -0.0446 | -0.0474 | -0.0432 | -0.0509 | 0.0065 | 0.0187 | -0.0442 | -0.018 | -0.0492 | -0.0321 | -0.0072 | -0.0134
CC1(C)CCC(CN2CCN(c3ccc(C(=O)NS(=O)(=O)c4ccc(NCC5CCOCC5)c([N+](=O)[O-])c4)c(Oc4cnc5[nH]ccc5c4)c3)CC2)=C(c2ccc(Cl)cc2)C1 [Venetoclax] + Cn1cnc2c(F)c(Nc3ccc(Br)cc3Cl)c(C(=O)NOCCO)cc21 [Selumetinib] (first compound max 1 µM, 7x7, partner max 3 µM) | -0.0074 | -0.0183 | -0.0324 | -0.0378 | -0.0095 | -0.0381 | 0.0509 | -0.0511 | -0.0442 | -0.0469 | -0.0704 | -0.0102 | -0.0104 | 0.0678 | -0.0034 | -0.0252 | -0.0618 | -0.0415 | 0.0918 | -0.0038
